# Read-outs that look alike come from different tables or passages of the source.
# Columns and labels:
# [1] = tested on: acetylsalicylic acid and pylorus ligation gastric ulcers; test: Acetylsalicylic acid and pylorus ligation gastric ulcers in the rat; format: in vivo, rat (Wistar male); settings: read-out: Acetylsalicylic acid and pylorus ligation gastric ulcers ED50
# Protocol: Wistar male rats, weighing 160-200 g, fasting from the previous evening are administered intraduodenum with the compound under study immediately after pylorus ligation under light ethereal anesthesia. Two hours after treatment rats receive orally 50 mg/kg of acetylsalicylic acid, dissolved in 5% gum arabic solution. An hour later rats are sacrificed under ether anesthesia and stomachs examined for presence of ulcers.
# [2] = tested on: indomethacin gastric ulcers; test: Indomethacin gastric ulcers in the rat; format: in vivo, rat (Wistar male); settings: po, read-out: Indomethacin gastric ulcers ED50
# Protocol: indomethacin gastric ulcers, induced in the rat following the under mentioned method originally described by Y. H. Lee, K. W. Mollison, W. C. Cheng in Arch. Int. Pharmacodyn.
# Wistar male rats, weighing 160-200 g, starved for 24 hours, are administered endoperitoneally with 30 mg/kg of indomethacin in 0.6% aqueous suspension of 1% gum arabic solution and immediately after they are treated orally with the compound under study. 5 hours later animals are sacrificed under ethereal anesthesia, the stomachs are removed, open along the great curvature and examined for the presence of ulcers. The ulcer index is expressed in terms of square root of the number of gastric ulcers.
# [3] = tested on: cold and restraint gastric ulcers; test: Cold and restraint gastric ulcers in the rat; format: in vivo, rat (Wistar female); settings: po, read-out: Cold and restraint gastric ulcers ED50
# Protocol: cold and restraint gastric ulcers induced in the rat following the under mentioned method originally described by E. C. Senay and R. J. Levine in Proc. Soc.
# Wistar female rats fasting from the previous evening are introduced in plastic tubes having such a diameter to exert a light constriction and immediately after they are put in a thermoregulated ambient at about 4° C. Two hours later the rats are sacrificed under ethereal anesthesia and their stomachs are examined to ascertain the presence of ulcers.
# The ulcer index of each stomach is determined, multiplying the number of gastric lesions of any kind by a corresponding arbitrary value (petechiae=0.5; punctiform ulcer=1; linear ulcer<2 mm=2; linear ulcer>2 mm=3) and adding the partial scores. Rats are treated with the compound under study half an hour before cold exposure.
# [4] = tested on: gastric secretion (hydrochloric acid); test: Activity on gastric secretion in Shay rats (total acidity); format: in vivo, rat (Wistar male); settings: Rattus norvegicus, read-out: Shay rats total acidity ED50
# Protocol: Wistar male rats, weighing 160-200 g, starved for 24 hours are treated orally with the compound under study after pylorus ligation under light ethereal anesthesia. 4 hours later rats are anesthetized with ether and after oesophagus ligation, the stomachs are removed and the contents collected. After centrifugation of the gastric juice, the quantity of hydrochloric acid is determined by titration with 0.01 N Sodium hydroxide, using phenolphthalein as indicator.
# [5] = intraduodenum immediately after pylorus ligation, dose reducing the number of ulcers by 50% compared with controls
# [6] = os, 30 mg/kg indomethacin endoperitoneally, dose reducing the ulcer index by 50% compared with controls
# [7] = os, half an hour before cold exposure, dose reducing the ulcer index by 50% compared with controls
# [8] = i.d. (Table 2 head), 4 hours after pylorus ligation, dose reducing secretion of hydrochloric acid by 50% compared with controls
Compound,"ED50 [1, 5]","ED50 [2, 6]","ED50 [3, 7]","ED50 [4, 8]",ED50 [1],ED50 [2],ED50 [3],ED50 ([4]; 4 h)
CNC(=NC#N)NCCSCc1cnc2ccccn12 [Ia],7.3 mg/kg,3.4 mg/kg,2.8 mg/kg,1.8 mg/kg,–,–,–,–
CNC(=NC#N)NCCSCc1c(C)nc2ccccn12 [Ib],2.1 mg/kg,0.7 mg/kg,1.5 mg/kg,1.1 mg/kg,–,–,–,–
CNC(=NC#N)NCCSC(C)c1cnc2ccccn12 (centres unmarked) [Ic],5.7 mg/kg,3.3 mg/kg,1.9 mg/kg,2.8 mg/kg,–,–,–,–
CNC(=NC#N)NCCSC(C)c1c(C)nc2ccccn12 (centres unmarked) [Id],0.9 mg/kg,0.9 mg/kg,0.7 mg/kg,0.6 mg/kg,–,–,–,–
"CN/C(=N/CCSCc1nc[nH]c1C)NC#N [[…], Cimetidine, reference compound]",–,–,–,–,3.8 mg/kg,2.4 mg/kg,6.3 mg/kg,0.6 mg/kg

# Source: US4311702A, “Imidazo[1,2-a]pyridines having anti-ulcer activity” (Poli Industria Chimica S.p.A., priority 1979, dated 1982)
